Laboratory results from PMC9386913 (Arthritis Research & Therapy, 2022).

Assay: Phase I multiple ascending-dose study: safety and tolerability (treatment-emergent adverse events)
Format: in vivo, human (healthy volunteers)
Method: A single-center, randomized, double-blind, placebo-controlled phase I study (NCT03554993) with a MAD component was performed in the UK between May 2018 and July 2019. Thirty-seven healthy volunteers of any race, ethnicity, or sex were enrolled. The inclusion criteria were 18 to 55 years of age inclusive, body mass index 18 to 33 kg/m^2, and physical examination by the investigator without clinically significant findings. Subjects were excluded if any clinically significant medical history, laboratory abnormality, psychiatric illness, or other condition existed that would place the subject at unacceptable risk by participating in the study. Pregnancy prevention guidance was provided as per Clinical Trial Facilitation Group recommendations. Subjects were randomly assigned to daily oral doses of CC-99677 or placebo. Subjects were dosed daily for 14 days. […] Both the investigator and subjects were blinded to the treatment arm. Safety assessments, including physical examinations, clinical laboratory tests, and collection of adverse events (AEs) were performed and graded using MedDRA version 22.0 and the US Food and Drug Administration (FDA) Toxicity Grading Scale for Healthy Adult and Adolescent Volunteers. The primary outcome of this trial was the safety and tolerability of multiple daily doses of CC-99677.

SMILES: CCOCc1cnc(Cl)nc1Oc1ccc2c(ccc3sc4c(c32)NC[C@@H](C)NC4=O)n1 [CC-99677]
- Subjects with ≥ 1 treatment-emergent AE (10 mg daily, 14 days (n = 5)): 3 (60.0) n (%)
- TEAE: Abdominal pain (10 mg daily, 14 days (n = 5)): 0 n (%)
- TEAE: Alanine aminotransferase increased (10 mg daily, 14 days (n = 5)): 0 n (%)
- TEAE: Aspartate aminotransferase increased (10 mg daily, 14 days (n = 5)): 0 n (%)
- TEAE: Back pain (10 mg daily, 14 days (n = 5)): 0 n (%)
- TEAE: Blood creatine phosphokinase increased (10 mg daily, 14 days (n = 5)): 0 n (%)
- TEAE: Catheter site related reaction (10 mg daily, 14 days (n = 5)): 0 n (%)
- TEAE: Chapped lips (10 mg daily, 14 days (n = 5)): 0 n (%)
- TEAE: Constipation (10 mg daily, 14 days (n = 5)): 0 n (%)
- TEAE: Diarrhea (10 mg daily, 14 days (n = 5)): 0 n (%)
- TEAE: Dizziness (10 mg daily, 14 days (n = 5)): 1 (20.0) n (%)
- TEAE: Dysmenorrhea (10 mg daily, 14 days (n = 5)): 0 n (%)
- TEAE: Dyspepsia (10 mg daily, 14 days (n = 5)): 1 (20.0) n (%)
- TEAE: Ear and labyrinth disorders (10 mg daily, 14 days (n = 5)): 1 (20.0) n (%)
- TEAE: Ear pain (10 mg daily, 14 days (n = 5)): 1 (20.0) n (%)
- TEAE: Flushing (10 mg daily, 14 days (n = 5)): 0 n (%)
- TEAE: Gastrointestinal disorders (10 mg daily, 14 days (n = 5)): 2 (40.0) n (%)
- TEAE: General disorders and administration site conditions (10 mg daily, 14 days (n = 5)): 2 (40.0) n (%)
- TEAE: Headache (10 mg daily, 14 days (n = 5)): 2 (40.0) n (%)
- TEAE: Hot flush (10 mg daily, 14 days (n = 5)): 0 n (%)
- TEAE: Infections and infestations (10 mg daily, 14 days (n = 5)): 1 (20.0) n (%)
- TEAE: Injury, poisoning, and procedural complications (10 mg daily, 14 days (n = 5)): 1 (20.0) n (%)
- TEAE: Insomnia (10 mg daily, 14 days (n = 5)): 1 (20.0) n (%)
- TEAE: Investigations (10 mg daily, 14 days (n = 5)): 0 n (%)
- TEAE: Muscle strain (10 mg daily, 14 days (n = 5)): 1 (20.0) n (%)
- TEAE: Musculoskeletal and connective tissue disorders (10 mg daily, 14 days (n = 5)): 0 n (%)
- TEAE: Musculoskeletal pain (10 mg daily, 14 days (n = 5)): 0 n (%)
- TEAE: Myalgia (10 mg daily, 14 days (n = 5)): 0 n (%)
- TEAE: Nasopharyngitis (10 mg daily, 14 days (n = 5)): 0 n (%)
- TEAE: Nausea (10 mg daily, 14 days (n = 5)): 2 (40.0) n (%)
- TEAE: Nervous system disorders (10 mg daily, 14 days (n = 5)): 2 (40.0) n (%)
- TEAE: Oropharyngeal pain (10 mg daily, 14 days (n = 5)): 1 (20.0) n (%)
- TEAE: Psychiatric disorders (10 mg daily, 14 days (n = 5)): 1 (20.0) n (%)
- TEAE: Rash pustular (10 mg daily, 14 days (n = 5)): 1 (20.0) n (%)
- TEAE: Rectal hemorrhage (10 mg daily, 14 days (n = 5)): 0 n (%)
- TEAE: Reproductive system and breast disorders (10 mg daily, 14 days (n = 5)): 0 n (%)
- TEAE: Respiratory, thoracic, and mediastinal disorders (10 mg daily, 14 days (n = 5)): 1 (20.0) n (%)
- TEAE: Sensation of foreign body (10 mg daily, 14 days (n = 5)): 1 (20.0) n (%)
- TEAE: Vascular disorders (10 mg daily, 14 days (n = 5)): 0 n (%)
- TEAE: Vessel puncture site pain (10 mg daily, 14 days (n = 5)): 1 (20.0) n (%)
- TEAE: Vessel puncture site reaction (10 mg daily, 14 days (n = 5)): 0 n (%)
- Subjects with ≥ 1 treatment-emergent AE (30 mg daily, 14 days (n = 6)): 4 (66.7) n (%)
- TEAE: Abdominal pain (30 mg daily, 14 days (n = 6)): 0 n (%)
- TEAE: Alanine aminotransferase increased (30 mg daily, 14 days (n = 6)): 0 n (%)
- TEAE: Aspartate aminotransferase increased (30 mg daily, 14 days (n = 6)): 0 n (%)
- TEAE: Back pain (30 mg daily, 14 days (n = 6)): 0 n (%)
- TEAE: Blood creatine phosphokinase increased (30 mg daily, 14 days (n = 6)): 0 n (%)
- TEAE: Catheter site related reaction (30 mg daily, 14 days (n = 6)): 0 n (%)
- TEAE: Chapped lips (30 mg daily, 14 days (n = 6)): 1 (16.7) n (%)
- TEAE: Constipation (30 mg daily, 14 days (n = 6)): 0 n (%)
- TEAE: Diarrhea (30 mg daily, 14 days (n = 6)): 0 n (%)
- TEAE: Dizziness (30 mg daily, 14 days (n = 6)): 1 (16.7) n (%)
- TEAE: Dysmenorrhea (30 mg daily, 14 days (n = 6)): 0 n (%)
- TEAE: Dyspepsia (30 mg daily, 14 days (n = 6)): 0 n (%)
- TEAE: Ear and labyrinth disorders (30 mg daily, 14 days (n = 6)): 0 n (%)
- TEAE: Ear pain (30 mg daily, 14 days (n = 6)): 0 n (%)
- TEAE: Flushing (30 mg daily, 14 days (n = 6)): 0 n (%)
- TEAE: Gastrointestinal disorders (30 mg daily, 14 days (n = 6)): 2 (33.3) n (%)
- TEAE: General disorders and administration site conditions (30 mg daily, 14 days (n = 6)): 0 n (%)
- TEAE: Headache (30 mg daily, 14 days (n = 6)): 0 n (%)
- TEAE: Hot flush (30 mg daily, 14 days (n = 6)): 0 n (%)
- TEAE: Infections and infestations (30 mg daily, 14 days (n = 6)): 1 (16.7) n (%)
- TEAE: Injury, poisoning, and procedural complications (30 mg daily, 14 days (n = 6)): 0 n (%)
- TEAE: Insomnia (30 mg daily, 14 days (n = 6)): 0 n (%)
- TEAE: Investigations (30 mg daily, 14 days (n = 6)): 0 n (%)
- TEAE: Muscle strain (30 mg daily, 14 days (n = 6)): 0 n (%)
- TEAE: Musculoskeletal and connective tissue disorders (30 mg daily, 14 days (n = 6)): 2 (33.3) n (%)
- TEAE: Musculoskeletal pain (30 mg daily, 14 days (n = 6)): 0 n (%)
- TEAE: Myalgia (30 mg daily, 14 days (n = 6)): 2 (33.3) n (%)
- TEAE: Nasopharyngitis (30 mg daily, 14 days (n = 6)): 1 (16.7) n (%)
- TEAE: Nausea (30 mg daily, 14 days (n = 6)): 0 n (%)
- TEAE: Nervous system disorders (30 mg daily, 14 days (n = 6)): 1 (16.7) n (%)
- TEAE: Oropharyngeal pain (30 mg daily, 14 days (n = 6)): 0 n (%)
- TEAE: Psychiatric disorders (30 mg daily, 14 days (n = 6)): 0 n (%)
- TEAE: Rash pustular (30 mg daily, 14 days (n = 6)): 0 n (%)
- TEAE: Rectal hemorrhage (30 mg daily, 14 days (n = 6)): 1 (16.7) n (%)
- TEAE: Reproductive system and breast disorders (30 mg daily, 14 days (n = 6)): 0 n (%)
- TEAE: Respiratory, thoracic, and mediastinal disorders (30 mg daily, 14 days (n = 6)): 0 n (%)
- TEAE: Sensation of foreign body (30 mg daily, 14 days (n = 6)): 0 n (%)
- TEAE: Vascular disorders (30 mg daily, 14 days (n = 6)): 0 n (%)
- TEAE: Vessel puncture site pain (30 mg daily, 14 days (n = 6)): 0 n (%)
- TEAE: Vessel puncture site reaction (30 mg daily, 14 days (n = 6)): 0 n (%)
- Subjects with ≥ 1 treatment-emergent AE (60 mg daily, 14 days (n = 6)): 1 (16.7) n (%)
- TEAE: Abdominal pain (60 mg daily, 14 days (n = 6)): 0 n (%)
- TEAE: Alanine aminotransferase increased (60 mg daily, 14 days (n = 6)): 0 n (%)
- TEAE: Aspartate aminotransferase increased (60 mg daily, 14 days (n = 6)): 0 n (%)
- TEAE: Back pain (60 mg daily, 14 days (n = 6)): 0 n (%)
- TEAE: Blood creatine phosphokinase increased (60 mg daily, 14 days (n = 6)): 0 n (%)
- TEAE: Catheter site related reaction (60 mg daily, 14 days (n = 6)): 0 n (%)
- TEAE: Chapped lips (60 mg daily, 14 days (n = 6)): 0 n (%)
- TEAE: Constipation (60 mg daily, 14 days (n = 6)): 0 n (%)
- TEAE: Diarrhea (60 mg daily, 14 days (n = 6)): 0 n (%)
- TEAE: Dizziness (60 mg daily, 14 days (n = 6)): 0 n (%)
- TEAE: Dysmenorrhea (60 mg daily, 14 days (n = 6)): 0 n (%)
- TEAE: Dyspepsia (60 mg daily, 14 days (n = 6)): 0 n (%)
- TEAE: Ear and labyrinth disorders (60 mg daily, 14 days (n = 6)): 0 n (%)
- TEAE: Ear pain (60 mg daily, 14 days (n = 6)): 0 n (%)
- TEAE: Flushing (60 mg daily, 14 days (n = 6)): 0 n (%)
- TEAE: Gastrointestinal disorders (60 mg daily, 14 days (n = 6)): 0 n (%)
- TEAE: General disorders and administration site conditions (60 mg daily, 14 days (n = 6)): 0 n (%)
- TEAE: Headache (60 mg daily, 14 days (n = 6)): 1 (16.7) n (%)
- TEAE: Hot flush (60 mg daily, 14 days (n = 6)): 0 n (%)
- TEAE: Infections and infestations (60 mg daily, 14 days (n = 6)): 0 n (%)
- TEAE: Injury, poisoning, and procedural complications (60 mg daily, 14 days (n = 6)): 0 n (%)
- TEAE: Insomnia (60 mg daily, 14 days (n = 6)): 0 n (%)
